From patent US20020137929A1, “1 - (3-heterocyclylphenyl) isothiourea, -isourea, -guanidine and -amidine herbicidal agents” (Intellectual Property Department, BASF Aktiengesellschaft, priority 1998, published 2002)

Key:
ZEAMX (Corn, Field) = assay: Postemergence herbicidal evaluation; type: in vivo, Zea mays
How it was run: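 Visual 0-9 injury score (stand, vigor, malformation, size, chlorosis, appearance vs untreated) taken four to five weeks post-spray, averaged across repeat tests. Test plants about two weeks old; foliar spray of acetone/water (1:1) with 0.5% surfactant delivering ~0.0156-0.500 kg active/ha.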

ORYSAT (Rice, Tebonnet) [1] = assay: Rice tolerance to post-transplant applications, flooded paddy conditions (Table III); type: in vivo, Oryza sativa, (L.) Tebonnet; conditions: in vivo
Protocol: (§1) Results of herbicide evaluation are expressed on a rating scale (0-9). The scale is based upon a visual observation of plant stand, vigor, malformation, size, chlorosis and overall plant appearance as compared with a control.
The tolerance of transplanted rice to post-transplanted herbicide applications is determined as follows: two ten-day-old rice seedlings (cv. Tebonnet) are transplanted into silt loam soil in 32 oz. plastic containers with a diameter of 10.5 cm and no drainage holes. After transplanting, the containers are flooded and the water level is maintained at 1.5 to 3 cm above the soil surface. Three days after transplanting, the flooded soil surface of the containers is treated with the selected aqueous/acetone 50/50 v/v mixture containing the test compounds to provide the equivalent of about 0.0313 to 0.500 kg/ha of active ingredient. The treated containers are placed on greenhouse benches, watered such that the water level is maintained as stated above, and cared for in accordance with conventional greenhouse procedures. Three to four weeks after treatment, the test is terminated and each container is examined and herbicidal effect rated according to the rating system provided in Example 37. The compounds evaluated are reported by compound number given in Example 37.
Plant species employed in this example are reported by header abbreviation, common name and scientific name.

MOOVA (Monochoria) = assay: Postemergence weed control under flooded paddy conditions; type: in vivo, Monochoria vaginalis; conditions: postemergence weeds, 3-4 weeks after treatment
How it was run: (§2)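 Flood-water application, about 0.0313–0.500 kg/ha a.i. in aqueous/acetone 50/50 v/v; water depth 1.5–3 cm throughout. Weeds 3–5 cm, rice 1.5–2.5 leaf. Greenhouse; 0–9 visual rating vs control at 3–4 wk.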

[2] = tested on: SAGPY (Arrowhead (Pygmaea)); assay: as above; type: in vivo, Sagittaria pygmaea; conditions: postemergence weeds, 3-4 weeks after treatment
How it was run: as §2

ABUTH (Velvetleaf) = assay: Preemergence herbicidal evaluation; type: in vivo, Abutilon theophrasti; conditions: rated 4-5 weeks after treatment
How it was run: (§3)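 Visual 0-9 rating vs control (stand, vigor, malformation, size, chlorosis, overall appearance), scored 4-5 wk after spraying. Seeded soil cups were treated preemergence with compound in aqueous acetone, ~0.0156-0.500 kg/ha equivalent.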

AMBEL (Ragweed, Common) = assay: Preemergence herbicidal evaluation; type: in vivo, Ambrosia artemisifolia; conditions: rated 4-5 weeks after treatment
How it was run: as §3

[3] = tested on: GLXMAW (Soybean, Williams); assay: Preemergence herbicidal evaluation; type: in vivo, Glycine max, (L.) Merr. cv Williams; conditions: rated 4-5 weeks after treatment
How it was run: as §3

ORYSAT (Rice, Tebonnet) [4] = assay: Rice tolerance to post-transplant applications, flooded paddy conditions (Table IV); type: in vivo, Oryza sativa, (L.) Tebonnet; conditions: in vivo
Text: as §1
Plastic containers containing weeds which are 3 to 5 cm tall and rice seedlings at the 1.5 to 2.5 leaf stage are flooded with water. The water is maintained at 1.5 to 3 cm above the soil surface for the duration of the experiment. Test compounds are applied as aqueous/ acetone mixtures 50/50 v/v directly into the flood water to provide the equivalent of about 0.0313 to 0.500 kg/ha of active ingredient. The treated containers are placed on greenhouse benches and cared for in accordance with conventional greenhouse procedures. Three to four weeks after treatment, the test is terminated and each container is examined and herbicidal effect rated according to the rating system provided in Example 37. The compounds evaluated are reported by compound number given in Example 37.

2-{{2-Chloro-5-[3,6-dihydro-3-methyl-2,6-dioxo-4-(trifluoromethyl)-1(2H)-pyrimidinyl]-4-fluoro-phenyl}imino}-4-oxo-3,5-thiazolidenediacetic acid, 3-ethyl (2-propynyl) ester, (2:1) mixture with di-2-propynyl ester [Compound 58]
0.0: Herbicidal rating MOOVA (MOOVA (Monochoria); rate 0.0313 kg/ha) | Herbicidal rating MOOVA (MOOVA (Monochoria); rate 0.0625 kg/ha) | Herbicidal rating SAGPY ([2]; rate 0.0313 kg/ha) | Herbicidal rating SAGPY ([2]; rate 0.0625 kg/ha) | Herbicidal rating SAGPY ([2]; rate 0.1250 kg/ha)
3.0: Herbicidal rating MOOVA (MOOVA (Monochoria); rate 0.1250 kg/ha)
7.0: Postemergence herbicidal rating ZEAMX (ZEAMX (Corn, Field); Rate 0.0158 kg/ha) | Postemergence herbicidal rating ZEAMX (ZEAMX (Corn, Field); Rate 0.0315 kg/ha)
8.0: Postemergence herbicidal rating ZEAMX (ZEAMX (Corn, Field); Rate 0.0630 kg/ha)
4.0: ORYSAT herbicidal effect rating (rice tolerance) (ORYSAT (Rice, Tebonnet) [1]) | Herbicidal rating SAGPY ([2]; rate 0.2500 kg/ha)
9.0: Herbicidal rating MOOVA (MOOVA (Monochoria); rate 0.2500 kg/ha)

CCOC(=O)CN1C(=O)C(CC(=O)O)SC1=Nc1cc(-n2c(=O)cc(C(F)(F)F)n(C)c2=O)c(Cl)cc1Cl (stereo not drawn) [Compound 33, 2-{{2,4-Dichloro-5-[3,6-dihydro-3-methyl-2,6-dioxo-4-(trifluoromethyl)-1(2H)-pyrimidinyl]phenyl}-imino}-4-oxo-3,5-thiazolidinediacetic acid, 3-ethyl ester]
7.5: Postemergence herbicidal rating ZEAMX (ZEAMX (Corn, Field); Rate 0.0158 kg/ha)
9.0: Preemergence herbicidal rating ABUTH (ABUTH (Velvetleaf); rate 0.0625 kg/ha) | Preemergence herbicidal rating ABUTH (ABUTH (Velvetleaf); rate 0.1250 kg/ha) | Preemergence herbicidal rating ABUTH (ABUTH (Velvetleaf); rate 0.2500 kg/ha) | Preemergence herbicidal rating AMBEL (AMBEL (Ragweed, Common); rate 0.0625 kg/ha) | Preemergence herbicidal rating AMBEL (AMBEL (Ragweed, Common); rate 0.1250 kg/ha) | Preemergence herbicidal rating AMBEL (AMBEL (Ragweed, Common); rate 0.2500 kg/ha)
8.0: Postemergence herbicidal rating ZEAMX (ZEAMX (Corn, Field); Rate 0.0315 kg/ha)
0.0: Preemergence herbicidal rating ABUTH (ABUTH (Velvetleaf); rate 0.0156 kg/ha) | Preemergence herbicidal rating ABUTH (ABUTH (Velvetleaf); rate 0.0313 kg/ha) | Preemergence herbicidal rating AMBEL (AMBEL (Ragweed, Common); rate 0.0156 kg/ha) | Preemergence herbicidal rating AMBEL (AMBEL (Ragweed, Common); rate 0.0313 kg/ha) | Preemergence herbicidal rating GLXMAW ([3]; rate 0.0156 kg/ha) | Preemergence herbicidal rating GLXMAW ([3]; rate 0.0313 kg/ha) | Preemergence herbicidal rating GLXMAW ([3]; rate 0.0625 kg/ha) | Preemergence herbicidal rating GLXMAW ([3]; rate 0.1250 kg/ha) | Preemergence herbicidal rating GLXMAW ([3]; rate 0.2500 kg/ha) | Herbicidal rating ORYSAT (rice tolerance) (ORYSAT (Rice, Tebonnet) [1]) | Herbicidal rating SAGPY ([2]; rate 0.2500 kg/ha) | Herbicidal rating ORYSAT (rice tolerance) (ORYSAT (Rice, Tebonnet) [4])
8.5: Postemergence herbicidal rating ZEAMX (ZEAMX (Corn, Field); Rate 0.0630 kg/ha)
